The text below walks through data of US7507727B2, “Substituted quinobenzoxazine analogs and methods of using thereof” (Cylene Pharmaceuticals, Inc., priority 2003, dated 2009).

“And” between values parts separate entries of the source, which are not always exact repeats. Equal values may be shown once. Read-outs that look alike come from different tables or passages of the source.

For one series, the system named is HCT-116. The series can be described thus: Cell proliferation/cytotoxicity in HCT-116 (Table 1D). It counts as cell-based. Conditions: Homo sapiens; HCT-116 cells; unit inferred.
For series [1], the target named is c-Myc template DNA (c-myc quadruplex). The series can be described thus: Quadruplex binding / stop assay (Taq polymerase arrest, capillary electrophoresis).
Series [2] has as its system Salmonella typhimurium (TA97a, TA98, TA100, TA102, TA1535). The note with it: positive control. The procedure:
This Mutagenicity Assessment (Ames Assay) evaluated the potential of the test article extracts to induce histidine (his) reversion in S. typhimurium (his− to his+) or tryptophan (trp) reversion in E. coli (trp− to trp+) caused by base changes or frameshift mutations in the genome of tester organisms.
This plate incorporation assay was conducted with five strains of Salmonella typhimurium (TA97a, TA98, TA100, TA102, and TA1535) and one strain of Escherichia coli (WP2-uvrA^−) in the presence and absence of an exogenous mammalian activation system (S9). The test article was dissolved in 5% dextrose. A series of dilutions were then prepared in saline just prior to testing. A Range Finding Study was conducted for this assay to determine the appropriate doses for definitive mutagenicity assessment.
A stock solution of test article was prepared at 20.0 mg/mL as follows: 1.0 g test article was added to 15.0 mL of 0.1 HCl for 1 minute. The test article was stirred for 15 minutes at room temperature. Next 33.0 mL of deionized water was added and allowed to stir for 30 minutes. […] Lower doses were prepared by dilution in 5% dextrose from this stock immediately prior to use. To minimize any change of degradation, the test article solutions were kept on ice after preparation and until just prior to dosing procedures. The test article was administered in vitro, through a solvent compatible with the test system.
This assay has historically been used to detect mutation in a gene of a histidine requiring strain to produce a histidine independent strain or concordantly, to detect mutation in a gene of a tryptophan requiring strain to produce a tryptophan independent strain.
S. typhimurium strain TA1535 and E. coli strain Wp2-uvrA^− were received from American Type Culture Collection, Manassas, Va. […] All working stocks of test strains will be confirmed for genotypic markers and acceptable reversion rates.
Master plates of the tester strains were prepared from frozen working stocks. To create working cultures for each bacterial strain used in the assay, a single colony was transferred from the master plate into Oxoid nutrient broth and incubated, with shaking, at 37±2° C. until an optical density (at 650 nm) of 0.6-1.6 was reached. This overnight culture was used for the mutagenicity test and for genotypic confirmation. Genotype tests were performed.
For both the dose range and mutagenicity test, a top agar consisting of 0.6% Difco agar in 0.5% NaCl was melted and a solution of 0.5 mM L-histidine/0.5 mM biotin or 0.5 mM L-tryptophan was added to the melted top agar at a ratio of 10 mL per 100 mL agar, as required. The supplemented agar was aliquotted, 2 mL per tube and held at 45-47° C. To prepare the top agar for treatment, 0.1 mL of the test article or control, 0.1 mL of the bacterial culture and 0.5 mL of phosphate buffered saline were added to the molten agar. […] Metabolic activation was provided by adding 0.5 mL of the S9 mix in place of the PBS. […] All plates were counted using an automatic image analysis system. Negative control and test article treated plates were also examined for the presence of a bacterial lawn.
The in vitro metabolic activation system used in this assay was comprised of Sprague Dawley rat liver enzymes and a cofactor pool. […] Immediately prior to use, the S9 was thawed and mixed with a cofactor pool to contain 5% S9, 5 mM glucose 6-phosphate, 4 mM β-nicotine-adenine dinucleotide phosphate, 8 mM MgCl2 and 33 mM KCl in a 200 mM phosphate buffer at pH 7.4. The S9 was purchased from Moltox (Boone, N.C.) and maintained frozen at less than −70° C.
For the definitive assay, three dose levels were chosen ([…], and 5.0 mg/mL). This was equivalent to 2.0, 1.0, and 0.5 mg/plate. All treatments, including negative and positive control, were plated in triplicate against test strains TA97a, TA98, TA100, TA102, TA1535, and WP2-uvrA^− in the presence and absence of metabolic activation.

Another series has as its system HCT-116 cells. The series can be described thus: Annexin V-Alexa 488 staining. The note with it: 0.5 uM, control. The class given is cell-based. As for the experimental part:
The following protocol was followed for this example. […] Incubate o/n or up to 24 hrs at 37° C. in CO2 incubator. […] Keep one or two untreated plates (medium only) as control plates. […] Harvest cells (collect attached as well as floating cells). Wash cells twice with cold PBS. Re-suspend cells in 1× Annexin binding buffer.
Count cells and dilute in 1× Annexin binding buffer to ˜1×10^6 cells/0.1 ml, preparing a sufficient volume to have 100 μl per assay. Add 5 μl of the Annexin V conjugate to each 100 μl of cell suspension. Add 4 μl of propidium iodide solution (stock=1 mg/ml) to each 100 μl of cell suspension. Incubate sample at RT for 15 minutes. Add 400 μl Annexin binding buffer, mix gently and keep samples on ice. Analyze stained cells immediately by flow cytometry.

A further series deals with Ramos xenograft. The series can be described thus: Ramos Burkitt's lymphoma xenograft model. The class given is in vivo. Conditions: FIG. 5. As for the experimental part: (§1) Two xenograft models for inoculation were harvested and diluted to a concentration of 50×10^6 cells/ml or 100×10^6 cells/ml. Four to six week old nude mice were injected with 0.1 ml of the cell suspension containing between 5×10^6 and 10×10^6 cells. When tumors are of a suitable size compound dosing is commenced. Tumor sizes are measured throughout the treatment period with calipers and body weights also measured.

The test system of the next series is topoisomerase II. Description: Topoisomerase-II poison assay. The class given is biochemical. The note with it: 1 μM; control Topoisomerase-II poison. An excerpt: FIG. 7 illustrates data from a toposiomerase-II poison assay, using VP-16 (Etoposide) as a control Topoisomerase-II poison.
The subject of a further series is HeLa cells. The series can be described thus: MTS cell proliferation and/or cytotoxicity assay. It counts as cell-based, Human. The note with it: Homo sapiens, HeLa, 72 h, concentration at which 50% of antiproliferative cell response is seen; 3 days incubation; read-out: MTS Data Hella. The essentials: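 HeLa cells seeded at 4,500 cells/well, exposed to compounds from day 1 for 3 days at 37 °C, 5% CO2. Viability by MTS/PMS (20:1) with 4 h incubation, absorbance at 490 nm. Values are concentrations giving 50% antiproliferative response.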

Another series relates to HCT-116 xenograft. The series can be described thus: HCT-116 colorectal cancer xenograft model. Conditions: HCT-116 model; FIG. 6. The class given is in vivo. The procedure: as §1
CX-3543 was tested against a number of cancer xenograft models to determine the in vivo efficacy. HCT-116 and PC-3 tumor-bearing nu/nu or MiaPaCa tumor-bearing SCID mice were administered reference and testing compounds on schedules indicated in figure legends. Tumor measurements were taken with calipers every other day or twice a week starting from the first day of dosing and body weights were measured at the same time points. Tumor volumes were calculated from the standard formula, W^2×L/2. c-MYC mRNA expression was measured with QPCR from all tumor samples following the final dose. 18S ribosomal RNA was used as a housekeeper and also quantified with QPCR.

The mark [3] stands for this setting: read-out: S DATA, Table 1D, stop assay data.

Consider `CC(C)(C)OC(=O)N1CCN(c2c(F)cc3c(=O)c(C(=O)NCCN4CCCC4)cn4c3c2Oc2cc(Cl)ccc2-4)CC1` [compound 1818], for which the IC50 in the series with HCT-116 came out at 40 nM; in series [1] (setting [3]), 2.9 µM.
For the compound `[N-]=[N+]=[N-]` [Sodium Azide], in series [2] (TA100, without S9 activation), the FI is 4.9; the “TA100 colony count (Rep 1-3)” value is 615 and 631 and 702; the “TA100 colony count, Mean” value stood at 649.3.
Consider `CC[C@@]1(O)C(=O)OCc2c1cc1n(c2=O)Cc2cc3ccccc3nc2-1` [CPT], for which the “Annexin V / duplex DNA dye response” value in the series with HCT-116 cells was “mixed apoptotic/necrotic response”.
Consider `Nc1ccc2cc3ccccc3cc2c1` [2-AA], for which, in series [2] (TA100, with S9 activation), the FI turned out to be 6.8; the “TA100 colony count (Rep 1-3)” value was 655 and 857 and 949; the “TA100 colony count, Mean” value amounted to 820.3.
Take `CN1CCN(CCCNCCC(=O)N[C@@H]2CCN(c3c(F)cc4c(=O)c(C(=O)N5CCOCC5)cn5c4c3Oc3cc4c(cc3-5)oc3ccccc34)C2)CC1` [compound 1204]: in the series with Ramos xenograft, the “antitumor activity: efficacy” value is reported as “slow tumor weight gain” and the “toxicity (body weight)” value is given as “little body weight change”.
On to `CCN1CCN(c2c(F)cc3c(=O)c(C(=O)NCCN4CCCC4)cn4c3c2Oc2cc(Cl)ccc2-4)CC1` [compound 1827], for which the figures for the IC50 (with HCT-116; in series [1] (setting [3])) were 10 nM and 4.8 µM, respectively.
On the same counts, the results for `O=C(NCCN1CCCC1)c1cn2c3c(c(NCCCN4CCOCC4)c(F)cc3c1=O)Oc1cc(Cl)ccc1-2` [compound 1816] are 30 nM and 5 µM.
With `COc1ccc(CN2CCN(c3c(F)cc4c(=O)c(C(=O)NCCN5CCCC5)cn5c4c3Oc3cc(Cl)ccc3-5)CC2)cc1` [compound 1828], the values for the IC50 (with HCT-116; in series [1] (setting [3])) were 100 nM and 7.5 µM, respectively.
In the case of VP-16, the “topoisomerase-II mediated DNA cleavage” value with topoisomerase II is “formation of double-strand breaks”.
As to `CN1CCCC1CCNC(=O)c1cn2c3c(c(N[C@H]4CN5CCC4CC5)c(F)cc3c1=O)Oc1cc3ccccc3cc1-2` (stereo partly drawn) [compound 1496], the IC50 in the series on HCT-116 stood at 340 nM; in series [1] (setting [3]), 0.375 µM.
The matching figures for `O=C(NCCN1CCCC1)c1cn2c3c(c(N4CCC(c5cnccn5)C4)c(F)cc3c1=O)Oc1cc(Cl)ccc1-2` (stereo not drawn) [compound 1811]: 200 nM and 2.8 µM.
Turning to `O=C(NCCN1CCCC1)c1cn2c3c(c(NCCCN4CCOCC4)c(F)cc3c1=O)Oc1cc3ccccc3cc1-2` [compound 494], the IC50 with HeLa cells worked out at 190 nM; in series [1] (read-out: Stop Data c-Myc μM, concentration at which 50% of the DNA was arrested (arrested:full-length 1:1)), 0.44 µM. In addition, in the series on HCT-116 xenograft, the “antitumor activity: efficacy” value was “slow tumor weight gain”. In addition, the “toxicity (body weight)” value with HCT-116 xenograft is “little body weight change”.
Consider `CC(C)CN1CCN(c2c(F)cc3c(=O)c(C(=O)NCCN4CCCC4)cn4c3c2Oc2cc(Cl)ccc2-4)CC1` [compound 1826], for which the IC50 in the series with HCT-116 came to 30 nM; in series [1] (setting [3]), 7.5 µM.
On the same counts, the results for `O=C(NCCN1CCCC1)c1cn2c3c(c(N4CCNCC4)c(F)cc3c1=O)Oc1cc(Cl)ccc1-2` [compound 1820] are 30 nM and 8.2 µM.
